Assay results taken from patent US11247965B2 (VenatoRx Pharmaceuticals, Inc., priority 2017, dated 2022).
pEC50: −log10 of the molar value.

Experiments:
[1] = system: HBV replication in HepAD38 cells; assay: Anti-HBV activity in HepAD38 cells, extracellular HBV DNA by QPCR; assay type: cell-based, HBV (genotype D, serotype ayw); details: Hepatitis B virus, HePAD38, 168 h, read-out: Anti-HBV EC50, HepAD38 cells, extracellular HBV DNA by QPCR, 7 days of incubation
Summary of the method: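 HepAD38 cells (HepG2 with tet-repressible HBV genotype D genome) seeded overnight, tetracycline removed, then treated 7 days with compounds (half-log dilutions, 30 μM–10 nM; 1:200 from DMSO). Supernatant HBV DNA quantified by QPCR against standard curve; % inhibition vs vehicle, EC50 by 4-parameter fit.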

[2] = In vitro cytotoxicity, MTT cell viability assay in HepG2 cells; assay type: cell-based; details: human, Cytotoxicity CC50
Summary of the method: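 Using MTT conversion as the viability measure, HepG2 cells were incubated with compounds for 7 days (30 μM to 1.0 nM). Absorbance at 492 nm was normalized to vehicle and fitted to give CC50.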

SMILES: Cc1cc(NC(=O)c2cc(C(F)(F)C(=O)N3CCC(O)CC3)ccc2F)ccc1F [Example 90, 5-(1,1-difluoro-2-(4-hydroxypiperidin-1-yl)-2-oxoethyl)-2-fluoro-N-(4-fluoro-3-methylphenyl)benzamide]
- pEC50 [1]: > 5.30
- CC50 at 7 days [2]: 5 to 30 µM

SMILES: COc1ccc(C(F)(F)C(=O)N2CCC(O)CC2)cc1C(=O)Nc1ccc(F)c(C)c1 [Example 91, 5-(1,1-difluoro-2-(4-hydroxypiperidin-1-yl)-2-oxoethyl)-N-(4-fluoro-3-methylphenyl)-2-methoxybenzamide]
- pEC50 [1]: < 4.52
- CC50 at 7 days [2]: > 30 µM

SMILES: Cc1cc(NC(=O)c2cccc(C(F)(F)C(=O)N3CCC(O)CC3)c2F)ccc1F [Example 92, 3-(1,1-difluoro-2-(4-hydroxypiperidin-1-yl)-2-oxoethyl)-2-fluoro-N-(4-fluoro-3-methylphenyl)benzamide]
- pEC50 [1]: > 5.30
- CC50 at 7 days [2]: 5 to 30 µM

SMILES: Cc1cc(NC(=O)c2cc(F)cc(C(F)(F)C(=O)N3CCC(O)CC3)c2)ccc1F [Example 93, 3-(1,1-difluoro-2-(4-hydroxypiperidin-1-yl)-2-oxoethyl)-5-fluoro-N-(4-fluoro-3-methylphenyl)benzamide]
- pEC50 [1]: > 5.30
- CC50 at 7 days [2]: 5 to 30 µM

SMILES: COc1ccc(C(=O)Nc2ccc(F)c(C)c2)cc1C(F)(F)C(=O)N1CCC(O)CC1 [Example 94, 3-(1,1-difluoro-2-(4-hydroxypiperidin-1-yl)-2-oxoethyl)-N-(4-fluoro-3-methylphenyl)-4-methoxybenzamide]
- pEC50 [1]: > 5.30
- CC50 at 7 days [2]: > 30 µM

SMILES: Cc1cc(NC(=O)c2cc(C(F)(F)C(=O)N3CCC(O)CC3)ccc2Cl)ccc1F [Example 95, 2-chloro-5-(1,1-difluoro-2-(4-hydroxypiperidin-1-yl)-2-oxoethyl)-N-(4-fluoro-3-methylphenyl)benzamide]
- pEC50 [1]: < 4.52
- CC50 at 7 days [2]: > 30 µM

SMILES: Cc1cc(NC(=O)c2ccn(C)c2C(F)(F)C(=O)N2CCC(O)CC2)ccc1F [Example 96, 2-(1,1-difluoro-2-(4-hydroxypiperidin-1-yl)-2-oxoethyl)-N-(4-fluoro-3-methylphenyl)-1-methyl-1H-pyrrole-3-carboxamide]
- pEC50 [1]: 4.52 to 5.30
- CC50 at 7 days [2]: > 30 µM

SMILES: Cc1cc(NC(=O)c2cc(C(F)(F)C(=O)N3CCC(O)CC3)n(C)c2)ccc1F [Example 97, 5-(1,1-difluoro-2-(4-hydroxypiperidin-1-yl)-2-oxoethyl)-N-(4-fluoro-3-methylphenyl)-1-methyl-1H-pyrrole-3-carboxamide]
- pEC50 [1]: > 5.30
- CC50 at 7 days [2]: > 30 µM

SMILES: Cc1cc(NC(=O)c2cc(Br)c(C(F)(F)C(=O)N3CCC(O)CC3)n2C)ccc1F [Example 98, 4-bromo-5-(1,1-difluoro-2-(4-hydroxypiperidin-1-yl)-2-oxoethyl)-N-(4-fluoro-3-methylphenyl)-1-methyl-1H-pyrrole-2-carboxamide]
- pEC50 [1]: < 4.52
- CC50 at 7 days [2]: > 30 µM

SMILES: Cc1cc(NC(=O)c2ccc(C(F)(F)C(=O)N3CCC(O)CC3)n2C)ccc1F [Example 99, 5-(1,1-difluoro-2-(4-hydroxypiperidin-1-yl)-2-oxoethyl)-N-(4-fluoro-3-methylphenyl)-1-methyl-1H-pyrrole-2-carboxamide]
- pEC50 [1]: < 4.52
- CC50 at 7 days [2]: > 30 µM

SMILES: Cc1cc(NC(=O)c2cc(C(F)(F)C(=O)NC(C)(C)C)n(C)c2)ccc1F [Example 100, 5-(2-(tert-butylamino)-1,1-difluoro-2-oxoethyl)-N-(4-fluoro-3-methylphenyl)-1-methyl-1H-pyrrole-3-carboxamide]
- pEC50 [1]: > 5.30
- CC50 at 7 days [2]: > 30 µM

SMILES: Cc1cc(NC(=O)c2ccn(C)c2C(F)(F)C(=O)NC(C)(C)C)ccc1F [Example 101, 2-(2-(tert-butylamino)-1,1-difluoro-2-oxoethyl)-N-(4-fluoro-3-methylphenyl)-1-methyl-1H-pyrrole-3-carboxamide]
- pEC50 [1]: > 5.30
- CC50 at 7 days [2]: > 30 µM

SMILES: Cc1cc(NC(=O)c2cc(C(F)(F)C(=O)NC(C)C)n(C)c2)ccc1F [Example 102, 5-(1,1-difluoro-2-(isopropylamino)-2-oxoethyl)-N-(4-fluoro-3-methylphenyl)-1-methyl-1H-pyrrole-3-carboxamide]
- pEC50 [1]: > 5.30
- CC50 at 7 days [2]: > 30 µM

SMILES: CC[C@H](C)NC(=O)C(F)(F)c1cc(C(=O)Nc2ccc(F)c(C)c2)cn1C [Example 103, (S)-5-(2-(sec-butylamino)-1,1-difluoro-2-oxoethyl)-N-(4-fluoro-3-methylphenyl)-1-methyl-1H-pyrrole-3-carboxamide]
- pEC50 [1]: > 5.30
- CC50 at 7 days [2]: 5 to 30 µM

SMILES: Cc1cc(NC(=O)c2cc(C(F)(F)C(=O)NC(C)(C)CO)n(C)c2)ccc1F [Example 104, 5-(1,1-difluoro-2-((1-hydroxy-2-methylpropan-2-yl)amino)-2-oxoethyl)-N-(4-fluoro-3-methylphenyl)-1-methyl-1H-pyrrole-3-carboxamide]
- pEC50 [1]: > 5.30
- CC50 at 7 days [2]: > 30 µM

SMILES: Cc1cc(NC(=O)c2ccn(C)c2C(F)(F)C(=O)NC(C)(C)CO)ccc1F [Example 105, 2-(1,1-difluoro-2-((1-hydroxy-2-methylpropan-2-yl)amino)-2-oxoethyl)-N-(4-fluoro-3-methylphenyl)-1-methyl-1H-pyrrole-3-carboxamide]
- pEC50 [1]: 4.52 to 5.30
- CC50 at 7 days [2]: > 30 µM

SMILES: Cc1cc(NC(=O)c2cc(C(F)(F)C(=O)NC(C)(C)C)n(C)c2C)ccc1F [Example 106, 5-(2-(tert-butylamino)-1,1-difluoro-2-oxoethyl)-N-(4-fluoro-3-methylphenyl)-1,2-dimethyl-1H-pyrrole-3-carboxamide]
- pEC50 [1]: > 5.30
- CC50 at 7 days [2]: 5 to 30 µM

SMILES: Cc1cc(NC(=O)c2c(C)c(C(F)(F)C(=O)NC(C)(C)C)n(C)c2C)ccc1F [Example 107, 5-(2-(tert-butylamino)-1,1-difluoro-2-oxoethyl)-N-(4-fluoro-3-methylphenyl)-1,2,4-trimethyl-1H-pyrrole-3-carboxamide]
- pEC50 [1]: > 5.30
- CC50 at 7 days [2]: > 30 µM

SMILES: CC[C@H](C)NC(=O)C(F)(F)c1c(C(=O)Nc2ccc(F)c(C)c2)ccn1C [Example 108, (S)-2-(2-(sec-butylamino)-1,1-difluoro-2-oxoethyl)-N-(4-fluoro-3-methylphenyl)-1-methyl-1H-pyrrole-3-carboxamide]
- pEC50 [1]: > 5.30
- CC50 at 7 days [2]: > 30 µM

SMILES: CC[C@@H](C)NC(=O)C(F)(F)c1cc(C(=O)Nc2ccc(F)c(C)c2)cn1C [Example 109, (R)-5-(2-(sec-butylamino)-1,1-difluoro-2-oxoethyl)-N-(4-fluoro-3-methylphenyl)-1-methyl-1H-pyrrole-3-carboxamide]
- pEC50 [1]: > 5.30
- CC50 at 7 days [2]: > 30 µM

SMILES: CC[C@@H](C)NC(=O)C(F)(F)c1c(C(=O)Nc2ccc(F)c(C)c2)ccn1C [Example 110, (R)-2-(2-(sec-butylamino)-1,1-difluoro-2-oxoethyl)-N-(4-fluoro-3-methylphenyl)-1-methyl-1H-pyrrole-3-carboxamide]
- pEC50 [1]: < 4.52
- CC50 at 7 days [2]: > 30 µM

SMILES: Cc1cc(NC(=O)c2cc(C(F)(F)C(=O)NC(C)C(F)(F)F)n(C)c2)ccc1F (centres unmarked) [Example 111, 5-(1,1-difluoro-2-oxo-2-((1,1,1-trifluoropropan-2-yl)amino)ethyl)-N-(4-fluoro-3-methylphenyl)-1-methyl-1H-pyrrole-3-carboxamide]
- pEC50 [1]: > 5.30
- CC50 at 7 days [2]: > 30 µM
